Tests used:
MC-38 murine colon tumor = assay: In vivo activity against colon tumor (MC38); parameters: species or system C57BL/6J mice; details: day 17 after the treatment; 50 mg/kg orally twice a day for 5 days; control 2000 mm^3
Protocol: Compound 11 was evaluated for its in vivo efficacy in treating colon tumor. Female C57BL/6J mice between 8-10 weeks of age were used. Murine colon tumor MC38 cells were detected as free of Mycoplasma spp prior to injection into animals. MC38 cells at 10^5 cells per mouse in 100 μL culture medium were implanted subcutaneously into the left flank region of mice with a 25⅝-gauge needle (n=8 animals per group). […] Treatments were initiated after randomization with inclusion of tumors at approximately 50 mm^3.
Control animals were orally administered with vehicle only. Tumor growths were measured with an electronic caliper and volumes were calculated as L×W×W/2. Tumor size and animal body weight were measured twice a week after tumor cell inoculation. After the treatment, tumor volumes and body weight changes were measured.

MDA-MB-231 TNBC cells = assay: In vivo activity against breast cancer (MDA-MB-231 xenograft); parameters: species or system NOD/SCID mice; details: day 35 after the treatment, from 150 mm^3 (control 600 mm^3)
Protocol: Compound 11 was further evaluated for its in vivo efficacy in treating breast cancer. MDA-MB-231 TNBC cell lines were used. Prior to injection into animals, the cancer cells were detected as free of Mycoplasma spp. Five million MDA-MB-231 cells in culture medium and matrigel (1:1, v/v) were injected subcutaneously into the left flank region of the NOD/SCID mice (n=8 animals per group). Treatments were initiated after randomization with inclusion of tumors at approximately 150 mm^3. The compound was prepared using 10% DMA: 40% PEG400:50% (1% CMC) (v/v/v).
Each group was administered orally twice a day for five days. Control animals were orally administered with vehicle only. Tumor growths were measured with an electronic caliper and volumes were calculated as L×W×W/2. Tumor size and animal body weight were measured twice a week after tumor cell inoculation.

MC38 murine colon tumor = assay: Immune modulatory activity in MC38 murine colon tumor model; assay type: in vivo, C57BL/6J mice; details: 50 mg/kg orally twice per day for five days
Protocol: Female C57BL/6J mice between 8-10 weeks of age were used. Murine colon tumor MC38 cells were detected as free of Mycoplasma spp prior to injection into animals. MC38 cells at 10^5 cells per mouse in 100 μL culture medium were implanted subcutaneously into the left flank region of mice with a 25⅝-gauge needle (n=5-6 animals per group). […] Treatments were initiated after randomization with inclusion of tumors at approximately 150 mm^3. Tumor growths were measured with an electronic caliper and volumes are calculated as L×W×W/2. Tumor size and animal body weight were measured twice a week after tumor cell inoculation. All experiments were conducted in accordance with the protocols approved by National Health Research Institutes' Institutional Animal Care and Use Committee.
Ten days after the treatment, the tumor cells and spleen cells in the mice were collected to study effect of this compound on the immune cells, i.e., tumor-associated macrophages and T cells. Briefly, tumor and spleen from vehicle control and Compound 11 were harvested and isolated into single cells. Single cell suspension were pre-incubated with mouse Fc receptor blocker before staining with appropriate antibody conjugate for Cd45, Cd3, Cd4, Cd8, F4/80, Cd11b, Cd86, AXL, MERTK and analyzed by flow cytometry to quantify the accumulation of immune cells including Cd4 (Cd3^+Cd4^+), Cd8 (Cd3^+Cd8^+), macrophages (Cd11b^+F4/80^+), tumor associated macrophage (M2, Cd11b^+F4/80^+Cd206^+), classical macrophage (M1, Cd11b^+F4/80+/Cd86^+) populations. For intracellular staining of analysis of tumor-associated macrophage marker Cd206 expression, cells were fixed by using Cytofix/Cytoperm™ kit (BD Biosciences, Franklin Lakes, New Jersey) after surface marker staining and then stain with anti-mouse Cd206 antibody conjugate. Live/dead fixable dye were used to exclude non-viable cells from the analyses.

SMILES: Cn1cc(-c2oc3ncnc(Oc4ccc(NC(=O)c5cccn(-c6ccc(F)cc6)c5=O)cc4)c3c2-c2cccc(N)c2)cn1 [Compound 11, N-(4-{[5-(3-aminophenyl)-6-(1-methyl-1H-pyrazol-4-yl)furo[2,3-d]pyrimidin-4-yl]oxy}phenyl)-1-(4-fluorophenyl)-2-oxo-1,2-dihydropyridine-3-carboxamide]
- tumor volume (MC-38 murine colon tumor): 300 mm^3
- tumor volume (MDA-MB-231 TNBC cells; 25 mg/kg orally twice a day for five days): 300 mm^3
- tumor volume (MDA-MB-231 TNBC cells; 50 mg/kg orally twice a day for five days): 220 mm^3
- expression of MERTK in CD4+ T cells (spleen) (MC38 murine colon tumor; decreased from 7%): 3%
- level of M2-phenotype macrophages in the tumor cells (MC38 murine colon tumor; decreased from 10%): 5%
- expression of AXL in CD8+ T cells (spleen) (MC38 murine colon tumor; decreased from 13%): 5%
- level of macrophages in the tumor cells (MC38 murine colon tumor; decreased from 18%): 13%
- expression of MERTK in CD8+ T cells (spleen) (MC38 murine colon tumor; decreased from 32%): 20%
- expression of AXL in CD4+ T cells (spleen) (MC38 murine colon tumor; decreased from […]): 0.7%
- level of CD4+ T cells in the spleen cells (MC38 murine colon tumor; increased from 5%): 10%
- level of CD8+ T cells in the spleen cells (MC38 murine colon tumor; increased from 18%): 28%
- level of total T cells in the spleen cells (MC38 murine colon tumor; increased from 30%): 43%
- tumor size (MC38 murine colon tumor; 10 days after treatment, from 200 mm^3 (vehicle 1000 mm^3)): 350 mm^3
